# Experimental data as given in patent publication EP0698347B1, “Food composition containing reuterin” (BIOGAIA BIOLOGICS AB, priority 1987, dated 1988).
# Experiments:
# E. coli [1] = assay: Inhibition of E. coli by supernatant fractions of L. reuteri grown on various substrates (Table 2); type: cell-based
# Description: (§1) Conditions under which reuterin is produced have been determined. Reuterin is not produced under aerobic conditions (atmospheric oxygen concentration) but under reduced oxygen tension. It is produced when L. reuteri is cultured anaerobically (or semi-anaerobically in still culture) in the MIC assay medium described above containing 20-500 mM glycerol or glyceraldehyde in place of glucose as the major carbon and energy source. […] Twenty other substances, including hexoses, hexitols, pentoses, pentitols, disaccharides and a variety of phosphorylated and non-phosphorylated C3-substances, were tested for their ability to support reuterin production. […] The medium, containing a substrate at 20 mM (C6 and C5 substrates) or 40 mM (C3 substrates) concentrations, was inoculated with 5 x 10^6 colony-forming units (CFU) per ml E. coli with and without L. reuteri. Only glycerol and glyceraldehyde yielded reuterin. Also, réuterin production from glycerol is inhibited when glucose or another growth substrate is included in the production medium. The results shown in Table 2 indicate the percent inhibition in viable count of a 6.7 x 10^7 CFU per ml E. coli inoculum by supernatant fractions of L. reuteri grown on various indicated substrates at 40 mM concentrations.
# E. coli [2] = assay: Co-culture of E. coli with and without L. reuteri 1063 on various substrates (Table 1); type: cell-based; design: % Inhibition: concentration or dose not given beside the values; conditions: for E. coli (CFU/ml) after 6 hours: substrate 20 mM (C6, C5) or 40 mM (C3), inoculum 5 x 10^6 CFU per ml E. coli
# Description: as §1
# [3] = Antimicrobial activity of pure commercial preparations; type: cell-based; conditions: concentrations as high as 0.125M
# Description: Reuterin Is a Product of Glycerol Fermentation. Reuterin is a new product associated with the same type of heterolactic fermentation of glycerol that occurs in other Lactobacillus species. Reuterin can be isolated and identified as a product of glycerol fermentation by L. reuteri using HPLC.
# spoilage pseudomonads = assay: Fish fillet storage: spoilage bacteria count (Table 8); conditions: fish fillets dipped in treatment solution, 8°C for 4 days
# Description: Lactobacillus reuteri plus glycerol constitutes a novel effective food preservation process. Evidence for this was obtained using storage of fish as a model system. This study was conducted as follows: Fish fillets (Herring, Clupea harengas) were dipped in the following treatment solution: • control: no treatment • glycerol: 250 mM glycerol solution • strain 1068: 250 mM glycerol solution containing 4x10^9 CFU per ml L. reuteri 1068 (a non-reuterin producing strain) • strain 1063: 250 mM glycerol solution containing 4x10^9 CFU per ml L. reuteri 1063 The fillets (2 parallel samples each) were kept in large Petri dishes at 8°C for 4 days in a refrigerator. The ammonia content and CFU of relevant bacteria (i.e., spoilage pseudomonads and added lactobacilli) were then analyzed to evaluate the shelf-life of the food product. […] L. reuteri 1068 did so to some extent but not enough to prevent spoilage which is generally indicated by a log 8.4 pseudomonad count. • (iii) the retarding effect of L. reuteri and glycerol on spoilage bacteria has a strong reducing effect on ammonia liberation. • (iv) a food preservative effect of L. reuteri plus glycerol is indicated for all kinds of food spoilage.
structure (smiles),measurement,setting,value
OCC(O)CO [Glycerol],% Inhibition,"E. coli [1]; percent inhibition in viable count of 6.7 x 10^7 CFU per ml E. coli inoculum by supernatant fraction, substrate 40 mM",99.9%
same,Growth of E. coli presence of centrifuged culture medium CFU/ml after 6 hours,"E. coli [1]; supernatant fraction of L. reuteri grown on the substrate at 40 mM, inoculum 6.7 x 10^7 CFU per ml E. coli",4.5x10^5 CFU/ml
same,E. coli (CFU/ml) after 6 hours,E. coli [2]; Addition of L. reuteri 1063: +,5.5x10^4 CFU/ml
same,E. coli (CFU/ml) after 6 hours,E. coli [2]; Addition of L. reuteri 1063: -,1.2x10^7 CFU/ml
same,% Inhibition,"E. coli [2]; E. coli with versus without L. reuteri 1063 on the substrate, 6 hours",99%
same,antimicrobial activity,[3],essentially devoid of antimicrobial activity
same,Log CFU bacteria per g Pseudomonads (kings agar),spoilage pseudomonads,9.4 Log CFU bacteria per g
